Measurements taken from patent US20200205318A1, “HEAT TRANSFER FLUIDS, METHODS AND SYSTEMS” (priority 2018, published 2020).

Legend:
[1] = Flammability / flash point (ASTM D3828, NFPA 30); format: physicochemical
Experimental: The flash pint of a thermal management fluid refers the lowest temperature at which vapors of the liquid will keep burning after the ignition source is removed as determined in accordance with ASTM D3828.
“Non-flammable” in the context of a thermal management composition or fluid means compounds or compositions which are determined to be non-flammable. The flash point of a thermal management composition or fluid refers the lowest temperature at which vapors of the composition will keep burning after the ignition source is removed as determined in accordance with ASTM D3828.

[2] = Electrical conductivity (ASTM D 2624); format: physicochemical; settings: at 22° C.
Experimental: (§1) Applicants have unexpectedly discovered that TFMCB not only meets the challenging performance requirements for high temperature heat transfer applications and for electronic cooling but also satisfies exacting environmental and safety requirements. […] In particular, applicants have determined that TFMCB has a measured dielectric constant of 20 at 22° C. as determined by ASTM D2477-07 and has a measured electrical conductivity of less than 10 nS/cm at 22° C. as determined by ASTM D 2624.

[3] = Acute inhalation toxicity (OECD Guideline No. 403); format: in vivo; settings: statement in words
From the text: LC50 is a measure of the acute toxicity of a compound. The acute inhalation toxicity of a compound can be assessed using the method described in the OECD Guideline for Testing of Chemicals No. 403 “Acute Inhalation Toxicity” (2009), Method B.2. (Inhalation) of Commission Regulation (EC) No. 440/2008.

[4] = Dielectric constant (ASTM D2477-07); format: physicochemical; settings: at 22° C.
Experimental: as §1

Q: For FC(F)(F)C1(F)CCC1(F)F (centres unmarked) [TFMCB, 1-trifluoromethyl-1,2,2-trifluorocyclobutane], which flammability [1] is on record?
A: non-flammable

Q: And the flash point ([1]; ASTM D3828)?
A: no flash point below 100° F

Q: What about the electrical conductivity [2] of the same molecule?
A: less than 10 nS/cm

Q: What about the toxicity [3] of the same molecule?
A: low levels of toxicity

Q: And the dielectric constant [4]?
A: 20
